Laboratory results: article PMC8751651 (ACS Omega, 2021)
“Also recorded” adds a separate entry of the source. Where a SMILES comes first, the peptide text is derived from it. Where no end group is shown, it is not given here. The star is where a group is joined. Biotin = O=C1N[C@H]2[C@H](CS[C@H]2CCCCC(=O)*)N1

Key:
[1] = system: inactivated SARS-CoV-2 virus; assay type: binding, SARS-CoV-2 (Isolate: USA-WA1/2020)
SARS-CoV-2 RBD protein [2] = target: T1, SARS-CoV-2 RBD protein (Severe acute respiratory syndrome coronavirus 2, UniProt P0DTC2); assay type: binding
influenza A virus = assay type: binding
SARS-CoV-2 RBD protein [3] = target: T1, SARS-CoV-2 RBD protein; assay type: binding; remark: listed apart in the source

`CC(C)C[C@H](NC(=O)[C@H](Cc1ccccc1)NC(=O)[C@H](CC(=O)O)NC(=O)[C@H](Cc1ccccc1)NC(=O)[C@H](CS)NC(=O)[C@H](CO)NC(=O)CCCC[C@@H]1SC[C@@H]2NC(=O)N[C@@H]21)C(=O)N[C@@H](CC(N)=O)C(=O)N[C@@H](Cc1c[nH]c2ccccc12)C(=O)N[C@@H](C)C(=O)N[C@@H](CO)C(=O)N[C@@H](CS)C(=O)N[C@@H](CC(=O)O)C(=O)NCC(=O)NCC(=O)NCC(=O)N[C@@H](CO)C(=O)O` [peptide 1] (Biotin-SCFDFLNWASCDGGGS-OH; C-terminus assumed) was tested, and the “binding to inactivated virus” value [1] was “can specifically bind to the SARS-CoV-2 virus”, the “gold nanoparticles on magnetic beads (TEM)” value (shortened to “gold nanoparticles”) [1] was “gold nanoparticles (dashed red circle) have conjugated onto the magnetic beads; also recorded: gold nanoparticles are observed on the magnetic beads” and the “SPR binding” value (SARS-CoV-2 RBD protein [2]) was “significant binding”. The “gold nanoparticles” value (influenza A virus) was “no gold nanoparticles are observed bound to the surface” and the “SPR binding curves / binding efficiency” value (SARS-CoV-2 RBD protein [3]) was “can efficiently bind to the SARS-CoV-2 RBD protein; also recorded: highest binding efficiency”.

With “Biotin-SCFDFLNWASCDGGGS (cysteine pairing not given here) [Biotinylated peptide 1]” the “gold nanoparticles” value [1] was “gold nanoparticles (dashed red circle) have conjugated onto the magnetic beads”.
